Data set [1] deals with LLC tumor. Put plainly: LLC tumor growth under Doxorubicin, plasma DNA of chemotherapy-treated mice and DNase I (Example 14). Format: in vivo, C57B1 mice. The source says:
Blood plasma DNA of tumor-bearing mice was received according to technique described above. Highly metastatic and low metastatic stains of mice' Luice lung carcinoma and Erlich carcinoma were used. Cells were cultivated in RPMI-1640 media with adding of 10% embryonic calf serum, 1% penicillin—streptomycin in 5% carbon dioxide atmosphere. For tumor induction in mice, cells were cultivated until the monolayer, than were detached with trypsin-EDTA solution. Cells were washed trice by centrifuging in phosphate buffer and were resuspensed until their concentration have become 0.5×10^7/ml. Viability was defined by inclusion of methylene blue in hemocytometer. Suspensions that contained 95% of viable cells were used for administration to animals.
Mice of C57B1 line and white not thoroughbred mice from “Rappolovo” animal house were used. Weight of animals was 24-26 grams. Animals were contained in cages, for 6-7 mice per one cage on a standard diet without water restriction. LLC cells in dose of 5×10^5 in 100 mkl of phosphate buffer were injected in soft tissues of thigh. Erlich tumor was subcutaneously replanted on the right side by injection of 0.2 ml 10% cells' suspension in isotonic sodium chloride solution.

Data set [2] deals with Erlich carcinoma. Put plainly: Combined use of DNase and Doxorubicin, Erlich tumor growth (Example 3). Format: in vivo, mice. Conditions: Doxorubicin 2 mg/kg intravenously once a day and/or DNase 0.5 mg/kg intraperitoneally four times a day, day 3 to 7; 7th day after transplantation. The method, then:
Bovine pancreatic DNase I (Fermentas) and human recombinant DNase […]) were used. DNase I solution for injections were prepared by dissolving of DNase matrix solution in sterile phosphate buffer directly before administration. […] Blood plasma DNA of tumor-bearing mice was received according to technique described above. Highly metastatic and low metastatic stains of mice' Luice lung carcinoma and Erlich carcinoma were used. […] For tumor induction in mice, cells were cultivated until the monolayer, than were detached with trypsin-EDTA solution. Cells were washed trice by centrifuging in phosphate buffer and were resuspensed until their concentration have become 0.5×10^7/ml. Viability was defined by inclusion of methylene blue in hemocytometer. […] Mice of C57B1 line and white not thoroughbred mice from “Rappolovo” animal house were used. Weight of animals was 24-26 grams. Animals were contained in cages, for 6-7 mice per one cage on a standard diet without water restriction. LLC cells in dose of 5×10^5 in 100 mkl of phosphate buffer were injected in soft tissues of thigh. […] Group 1-10 mice transplanted with Erlich carcinoma (control). Group 2-10 mice replanted with Erlich carcinoma. […] Group 3-10 mice replanted with Erlich carcinoma. […] Group 4-10 mice replanted with Erlich carcinoma. […] Results of experiments were estimated according to tumor's growth inhibition (TGI) that were expressed in percents to control data received at last day of DNase injection with standard formula using.

Data set [3] has as its system P-glycoprotein. Put plainly: P-glycoprotein expression in Erlich carcinoma, immunohistochemical staining (Example 13). It counts as in vivo, mice. Conditions: 5 day therapy from 3rd day: Doxorubicin 2 mg/kg intravenously daily, DNase I 0.5 mg/kg four times a day; tissue on 8th day.
Experimental: Mice were subjected to course of 5 day therapy with Doxorubicin (2 mg/kg intravenously daily) or Doxorubicin+DNase I (0.5 mg/kg four times a day during 5 days)
Tissue preparations were executed on the 8th day of tumor's transplantation.
The nature of data set [4]: Toxic effect of human DNase I injection on animals. It counts as in vivo. Conditions: single and multiple injection of up to 2.5 mg/kg.
A short description of data set [5]: Influence of DNase I therapy on old rats' life time (Example 19). It counts as in vivo. Conditions: 24 month old rats, 500 mg/kg intravenously 2 times a week during 2 months. The method, then:
White not thoroughbred 24 month old rats were used in experiment. In the study group (10 animals) rats starting from the age of 24 months were subjected to intravenous administration of polysialated human DNase I at […] (equivalent dose of non-modified enzyme) 2 times a week during 2 months. Control group of animals got the administration of placebo. Average life time of rats from control group was 27.8 months. Average life time of rats from experimental group was 30.1 months.

Take `O=P1(N(CCCl)CCCl)NCCCO1` (centres unmarked) [Cyclophosphamide]: the “tumor inhibition at day 8” value in data set [1] (mouse, in vivo) was found to be 30%.

On to `COc1cccc2c1C(=O)c1c(O)c3c(c(O)c1C2=O)C[C@@](O)(C(=O)CO)C[C@@H]3O[C@H]1C[C@H](N)[C@H](O)[C@H](C)O1` [Doxorubicin], for which, in data set [2], the “T% (tumor's growth inhibition)” value was found to be 42% and the “Tumor's volume” value was 57 +/− 10. The “P-glycoprotein expression in tumor tissue” value in data set [3] is on record as “Multifocal expression”. In addition, the “Tumor's size” value in data set [1] (8th day after transplantation, Doxorubicin 2 mg/kg i.v. daily day 3-8, DNA 0.05 mkg i.v. day 1 and 3 of treatment, DNase I 0.5 mg/kg i.p. 4 times a day, first and second days) is given as 67 +/− 7. The “tumor inhibition at day 8” value in data set [1] (Doxorubicin 2 mg/kg daily for 5 days from day 3, Cyclophosphamide 15 mg/kg intraperitoneally once on 3rd day) is reported as 50%.

B1: human DNase I: human recombinant DNase I (Dornase; Gentech) (protein, UniProt P24855 23-282, looked up)
Deoxyribonuclease-1: LKIAAFNIQTFGETKMSNATLVSYIVQILSRYDIALVQEVRDSHLTAVGKLLDNLNQDAPDTYHYVVSEPLGRNSYKERYLFVYRPDQVSAVDSYYYDDGCEPCGNDTFNREPAIVRFFSRFTEVREFAIVPLHAAPGDAVAEIDALYDVYLDVQEKWGLEDVMLMGDFNAGCSYVRPSQWSSIRLWTSPTFQWLIPDSADTTATPTHCAYDRIVVAGMLLRGAVVPDSALPFNFQAAYGLSDQLAQAISDHYPVEVMLK
In the case of B1, the “Toxic effect on animals” value in data set [4] is on record as “no toxic effect”.

B2: polysialated human DNase I: polysialated human DNase I, dose as equivalent of non-modified enzyme (protein, UniProt P24855 23-282, looked up)
Deoxyribonuclease-1: LKIAAFNIQTFGETKMSNATLVSYIVQILSRYDIALVQEVRDSHLTAVGKLLDNLNQDAPDTYHYVVSEPLGRNSYKERYLFVYRPDQVSAVDSYYYDDGCEPCGNDTFNREPAIVRFFSRFTEVREFAIVPLHAAPGDAVAEIDALYDVYLDVQEKWGLEDVMLMGDFNAGCSYVRPSQWSSIRLWTSPTFQWLIPDSADTTATPTHCAYDRIVVAGMLLRGAVVPDSALPFNFQAAYGLSDQLAQAISDHYPVEVMLK
modifications: polysialylated
notes: polysialated human DNase I, dose as equivalent of non-modified enzyme
As for B2, the Average life time in data set [5] is on record as 30.1 months.

Values taken from patent US20080004561A1, “Method for Treating Oncological, Virulent and Somatic Diseases, Method for Controlling Treatment Efficiency, Pharmaceutical Agents and Composition for Carrying Out Said Treatment” (priority 2005, published 2008).
